Laboratory results from patent US20070213291A1, “Therapeutically useful synthetic oligonucleotides” (priority 1999, published 2007).
Values joined by “and” are separate entries in the source; they are usually repeats but may differ in a detail not shown here. Identical values can stand only once.

Experiments:
Type in all cases: cell-based
[1] = tested on: EL-4 murine T lymphoma cells; assay: Inhibition of EL-4 cell proliferation (MTT); conditions: 100 μg/ml, 48 h
Procedure, shortened: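 EL-4 cells at 2.5×10^5 cells/ml were exposed for 48 h at 37° C, 5% CO2, to 100 μg/ml of 2- to 45-base sequences of A, C, G and T, against untreated controls. Proliferation was read by MTT reduction at 570 nm.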

[2] = tested on: A20 murine B leukemia cells; assay: Inhibition of A20 cell proliferation (MTT); conditions: 100 μg/ml, 48 h
Experimental: (§1) Cells were seeded in 6 (1 ml/well), 24 (0.5 ml/well) or 96 (0.1 ml/well) well flat-bottom microplates and were maintained at 37° C. in a 5% CO2 atmosphere. Unless stated otherwise, 2.5×10^5 cells/ml were incubated with 0 μg/ml (control) and 100 μg/ml (treated) of 2 to 45 base sequences containing A, C, G and T for 48 h.
(§2) Cell proliferation was measured using dimethylthiazol-diphenyl-tetrazolium (MTT) reduction (Mosman et al. J. Immunol. Methods 65:55, 1983). MTT was measured at a wavelength of 570 nm using a multiplate spectrophotometer reader (ELX800, Bio-TEK Instruments Inc., Winooski, Vt.).
A20 murine leukemia B cells are a suspension tumor model. A20 murine leukemia B cells were incubated with 6 base GT sequences (Table 19).

[3] = tested on: D-17 canine osteosarcoma cells; assay: Inhibition of D-17 cell proliferation (MTT); conditions: 100 μg/ml, 48 h, 5×10^5 cells/ml
Experimental: as §1, §2
(§3) D-17 canine osteosarcoma cells and CF-51 canine mammary gland cancer cells are solid tumor models. D-17 canine osteosarcoma cells (5×10^5 cells/ml) (Table 20) and CF-51 canine mammary gland cancer cells (5×10^5 cells/ml) (Table 21) were incubated with 6, 9, 17, 27 and 33 base GT-sequences and with a 15 base ACG sequence.

[4] = tested on: CF-51 canine mammary gland cancer cells; assay: Inhibition of CF-51 cell proliferation (MTT); conditions: 100 μg/ml, 48 h, 5×10^5 cells/ml
Experimental: as §1, §2, §3

[5] = tested on: L-1210 murine leukemia cells; assay: Inhibition of L-1210 cell proliferation
Experimental: as §1, §2

[6] = tested on: Jurkat human leukemia T cells; assay: Cell cycle stage in Jurkat cells (propidium iodide flow cytometry); conditions: 24 h
Procedure, shortened: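 Phase distribution (G0/G1, early, mid and late S, G2/M) came from flow cytometry with doublet discrimination on propidium iodide-stained nuclei. Jurkat cells were given 24 h exposure to 2–45-base oligonucleotides, or at 1×10^6 cells/ml to single 6-base GT or AC strands heated 10 min at 65 °C or 1:1 hybridized duplex.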

[7] = tested on: Jurkat human leukemia T cells; assay: NuMA release into supernatant (ELISA); conditions: for % NuMA released (treated vs untreated cells): 50 μM sequence
Procedure, shortened: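 Jurkat T cells (1×10^6/ml) exposed to GT-containing oligonucleotide sequences, at 50 μM in some experiments, for 24 h in some experiments. NuMA released into the supernatant quantified by commercial ELISA.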

chimpanzee PBMCs = assay: Cytokine production by chimpanzee PBMC (ELISA); conditions: PBMC of 4 healthy chimpanzees, 100 μg/ml, 48 h
Procedure, shortened: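 PBMCs from 4 healthy chimpanzees (1×10^6 cells) were incubated 48 h at 37 °C, 5% CO2 with 100 μg/ml of each 6-base sequence. Supernatant IL-10, IL-12 (p70 plus free p40) and TNF-alpha were measured by ELISA. Values are fold increase over untreated control cells.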

[8] = Jurkat 1×10^6 cells/ml, sequences heated 10 minutes at 65° C.

Sequence | % INHIBITION of EL-4 murine T lymphoma cell proliferation [1] | % INHIBITION of A20 murine B leukemia cell proliferation [2] | % INHIBITION of D-17 canine osteosarcoma cell proliferation [3] | % INHIBITION of CF-51 canine mammary gland cancer cell proliferation [4] | % of cells in phase: G0/G1 ([6]; Jurkat, 100 μg/ml) | % of cells in phase: G2/M ([6]; Jurkat, 100 μg/ml) | % of cells in phase: SE ([6]; Jurkat, 100 μg/ml) | % of cells in phase: SL ([6]; Jurkat, 100 μg/ml) | % of cells in phase: SM ([6]; Jurkat, 100 μg/ml) | Arrest (cell cycle) ([6]; Jurkat, 100 μg/ml) | % NuMA released (treated vs untreated cells) ([7]; Jurkat) | IL-10 fold increase: mean +/− SD (chimpanzee PBMCs) | IL-12 fold increase: mean +/− SD (chimpanzee PBMCs) | TNF-alpha fold increase: mean +/− SD (chimpanzee PBMCs) | further results
GGGTGG [SEQ ID NO:25] | 4% and 1% | 11% | 18% | 14% | 28.5% | 0.0% | 46.3% | 10.7% | 14.6% | End SE | 69% | 2.5 +/− 1.5 fold increase | 13.5 +/− 8.4 fold increase | 11.7 +/− 6.7 fold increase | % inhibition of L-1210 murine cancer cell proliferation [5]: 8%; % cells in phase: G0/G1 [6, 8]: 28.0%; % cells in phase: G2/M [6, 8]: 0.9%; % cells in phase: SE [6, 8]: 45.8%; % cells in phase: SL [6, 8]: 11.3%; % cells in phase: SM [6, 8]: 14.0%; Arrest (cell cycle) [6, 8]: induced arrest at the end of the SE phase of the cell cycle; % NUMA RELEASED ([7]; Jurkat 1×10^6/ml): 269%; % NuMA released (untreated vs treated cells) ([7]; Jurkat, 24 h, sequences heated 10 minutes at 65° C.): 69%
GTGTGT [SEQ ID NO:10] | −2% | 9% | 15% | 15% | 30.8% | 0.3% | 41.9% | 10.2% | 16.8% | End SE | 90% | 4.0 +/− 2.1 fold increase | 14.0 +/− 8.5 fold increase | 12.9 +/− 6.4 fold increase | –
TTGTTT [SEQ ID NO:26] | – | 15% | – | – | 32.6% | 32.4% | 11.5% | 10.7% | 12.8% | END G2/M | 23% | 1.4 +/− 0.9 fold increase | 12.3 +/− 8.5 fold increase | 7.5 +/− 4.6 fold increase | –
